The values below come from ChEMBL document CHEMBL3217443, “The Discovery of Novel 10,11-Dihydro-5H-dibenz[b,f]azepine SIRT2 Inhibitors” (Medchemcomm, 2012).

For assay [1], the target named is T1, NAD-dependent protein deacetylase sirtuin-1 (Homo sapiens) (UniProt Q96EB6).
T1 sequence (whole entry): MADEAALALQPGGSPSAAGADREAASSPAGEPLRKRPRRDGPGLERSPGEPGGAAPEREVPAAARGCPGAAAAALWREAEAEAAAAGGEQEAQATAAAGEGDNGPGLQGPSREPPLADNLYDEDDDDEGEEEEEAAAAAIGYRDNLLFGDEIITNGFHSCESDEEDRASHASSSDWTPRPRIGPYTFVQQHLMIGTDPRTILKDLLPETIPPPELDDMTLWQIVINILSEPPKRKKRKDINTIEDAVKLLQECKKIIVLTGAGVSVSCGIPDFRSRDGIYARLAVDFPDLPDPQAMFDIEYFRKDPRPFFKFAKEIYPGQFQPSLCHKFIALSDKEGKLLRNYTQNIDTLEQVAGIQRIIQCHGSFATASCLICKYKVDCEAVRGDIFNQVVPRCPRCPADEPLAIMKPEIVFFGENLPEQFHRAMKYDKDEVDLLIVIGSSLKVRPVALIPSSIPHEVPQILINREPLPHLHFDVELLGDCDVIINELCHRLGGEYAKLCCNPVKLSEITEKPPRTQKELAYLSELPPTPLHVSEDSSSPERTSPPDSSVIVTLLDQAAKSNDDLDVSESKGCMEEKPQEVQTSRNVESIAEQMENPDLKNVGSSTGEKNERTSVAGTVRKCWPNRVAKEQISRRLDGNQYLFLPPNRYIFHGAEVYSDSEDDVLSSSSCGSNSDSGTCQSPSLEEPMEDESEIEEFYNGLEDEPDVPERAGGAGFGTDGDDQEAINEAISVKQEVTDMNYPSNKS
In words: Inhibition of recombinant human N-tagged GST-SIRT1 fusion protein using fluorescent ZMAL as substrate at 50 uM after 4 hrs by homogeneous fluorescent deacetylase assay.

The target in assay [2] is T2, NAD-dependent protein deacetylase sirtuin-2 (Homo sapiens) (UniProt Q8IXJ6).
T2 sequence (whole entry): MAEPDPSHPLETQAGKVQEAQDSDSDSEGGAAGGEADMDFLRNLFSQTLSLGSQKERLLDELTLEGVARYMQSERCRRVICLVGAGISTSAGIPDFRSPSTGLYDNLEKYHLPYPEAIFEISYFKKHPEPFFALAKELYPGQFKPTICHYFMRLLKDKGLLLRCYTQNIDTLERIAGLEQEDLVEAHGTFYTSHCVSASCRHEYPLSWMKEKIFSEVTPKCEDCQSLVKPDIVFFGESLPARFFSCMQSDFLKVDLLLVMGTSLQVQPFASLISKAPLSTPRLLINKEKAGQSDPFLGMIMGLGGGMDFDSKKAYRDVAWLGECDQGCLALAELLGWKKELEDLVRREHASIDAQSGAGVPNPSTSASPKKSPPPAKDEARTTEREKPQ
In words: Inhibition of recombinant human full length SIRT2 using fluorescent ZMAL as substrate at 50 uM after 4 hrs by homogeneous fluorescent deacetylase assay.

Assay [3] relates to MCF7. In words: Cell cycle arrest in human MCF7 cells assessed as accumulation at G1 phase at 50 uM after 24 hrs by flow cytometry (reference value: 43.5 %). The format is functional. (In flow cytometry, cells or beads pass a laser one at a time.)
Assay [4] concerns MCF7. The experiment in a line: Cell cycle arrest in human MCF7 cells assessed as accumulation at sub-G1 phase at 50 uM after 24 hrs by flow cytometry (reference value: 0.3 %). The format is functional.
The target of assay [5] is T1, NAD-dependent protein deacetylase sirtuin-1 (Homo sapiens). In words: Inhibition of SIRT1 in human MCF7 cells assessed as increase in acetylation of H3-K9 up to 50 uM after 24 hrs by Western blot analysis. The format is cell-based. For orientation: In western blotting, separated proteins are transferred to a membrane and probed.
Assay [6] has the same target. In words: Inhibition of SIRT1 in human MCF7 cells assessed as increase in acetylation of p53 at lys 382 at 50 uM after 24 hrs by Western blot analysis. The format is cell-based.
In assay [7] the test system is MCF7. The experiment in a line: Cell cycle arrest in human MCF7 cells assessed as accumulation at S phase at 50 uM after 24 hrs by flow cytometry (reference value: 30.8 %). The format is functional.
For assay [8], the system named is MCF7. The experiment in a line: Cell cycle arrest in human MCF7 cells assessed as accumulation at G2-M phase at 50 uM after 24 hrs by flow cytometry (reference value: 22.6 %). The format is functional.
Assay [9] deals with MCF7. In words: Antiproliferative activity against human MCF7 cells at 30 uM after 24 to 72 hrs. The format is functional.
In assay [10] the target is T2, NAD-dependent protein deacetylase sirtuin-2 (Homo sapiens). In words: Inhibition of SIRT2 in human MCF7 cells assessed as increase in hyperacetylation of alpha-tubulin up to 50 uM after 24 hrs by Western blot analysis. The format is cell-based.
Assay [11] has as its target T3, NAD-dependent protein deacetylase sirtuin-1 (Homo sapiens, UniProt Q96EB6).
T3 sequence (Q96EB6 whole entry): T1 sequence (whole entry)
Description: Inhibition of recombinant human N-tagged GST-SIRT1 fusion protein using fluorescent ZMAL as substrate after 4 hrs by homogeneous fluorescent deacetylase assay

Assay [12] deals with T4, NAD-dependent protein deacetylase sirtuin-2 (Homo sapiens, UniProt Q8IXJ6).
T4 sequence (Q8IXJ6 whole entry): T2 sequence (whole entry)
The experiment in a line: Inhibition of recombinant human full length SIRT2 using fluorescent ZMAL as substrate after 4 hrs by homogeneous fluorescent deacetylase assay.

Assay [13] deals with T1, NAD-dependent protein deacetylase sirtuin-1 (Homo sapiens). In words: Inhibition of recombinant human N-tagged GST-SIRT1 fusion protein using fluorescent ZMAL as substrate at 100 uM after 4 hrs by homogeneous fluorescent deacetylase assay.
In assay [14] the target is T2, NAD-dependent protein deacetylase sirtuin-2 (Homo sapiens). The experiment in a line: Inhibition of SIRT2 in human MCF7 cells assessed as decrease in phosphorylation of pRB at Ser807/Ser811 at 50 uM after 24 hrs by Western blot analysis. The format is cell-based.
In assay [15] the target is T1, NAD-dependent protein deacetylase sirtuin-1 (Homo sapiens). The experiment in a line: Inhibition of recombinant human N-tagged GST-SIRT1 fusion protein using fluorescent ZMAL as substrate at 500 uM after 4 hrs by homogeneous fluorescent deacetylase assay.
A further assay is filed under the species Homo sapiens. The experiment in a line: Selectivity ratio of IC50 for recombinant human N-tagged GST-SIRT1 fusion protein to IC50 for recombinant human full length SIRT2.

Activity calls are given as the source filed them. No cut-off for these calls is given here. A value given as a limit tells only on which side of the number the result lay.

As for `OCc1ccc2c(c1)CCc1cc(CO)ccc1N2`, the inhibition in [1] and in [2] was below 25% each time.

In the case of `N#Cc1ccc2c(c1)CCc1cc(C#N)ccc1N2`, the inhibition in assay [1] and in assay [2] was below 25% throughout.

Turning to `NC(=O)c1ccc2c(c1)CCc1cccc([N+](=O)[O-])c1N2`, the inhibition in assay [1] and in assay [2] was below 25% throughout.

In the case of `N#Cc1ccc2c(c1)CCc1cc(C(N)=O)ccc1N2`, the inhibition in assay [1] and in assay [2] was below 25% each time.

Consider `NC(=O)c1ccc2c(c1)CCc1cccc(CO)c1N2`, for which the inhibition in assay [1] and in [2] was below 25% in each case.

For `NC(=O)N1c2ccccc2CCc2ccccc21`, the inhibition in [1] and in assay [2] was below 25% each time.

In the case of `O=C(Nc1cccc(Br)c1)c1cccc(S(=O)(=O)N2CCCCCC2)c1`, the Activity worked out at 54.3% in the assay on MCF7 [3], 0.4% in the assay with MCF7 [4], 20% with MCF7 [7] and 25.3% in the assay on MCF7 [8]. Further, the inhibition in assay [1] was below 25%. In assay [5], the inhibition result is “inactive”. In [6], the inhibition result is “Active”.

As for `O=[N+]([O-])c1ccc2c(c1)CCc1ccccc1N2`, the inhibition in [1] and in assay [2] was below 25% throughout.

Turning to `CC(NC(=O)c1ccccc1/N=C/c1c(O)ccc2ccccc12)c1ccccc1` (stereo not drawn) [SIRTINOL], the Activity in the assay on MCF7 [3] was determined as 71.5%; with MCF7 [4], 0.7%; in the assay on MCF7 [7], 9.7%; in the assay on MCF7 [8] it was 18%. Further, in the assay with MCF7 [9], the result was Active. For the same compound, the inhibition result in [10] and in [5] was “inactive” each time. Moreover, in assay [6], the inhibition result was “Active”.

Consider `CC(C(=O)Nc1cccc(/N=C/c2c(O)ccc3ccccc23)c1)c1ccccc1` (stereo not drawn) [SALERMIDE], for which the figures for the 50% inhibitory concentration (IC50) in assay [11] and in assay [12] were 76 µM and 45 µM, respectively. Also, the Activity came out at 56.1% with MCF7 [3], 1.1% in the assay on MCF7 [4], 16.4% in the assay on MCF7 [7] and 26.4% in the assay with MCF7 [8]. Also, in the assay with MCF7 [9], the outcome was Active. The inhibition entry in [10] and in assay [6] was “Active” in each case. Besides, the inhibition entry in assay [5] is “inactive”.

Take `O=[N+]([O-])c1ccc2c(c1)Nc1ccccc1CC2`: the inhibition in assay [1] and in assay [2] was below 25% throughout.

Regarding `NC(=O)c1ccc2c(c1)CCc1cc(Cl)ccc1N2`, the inhibition in assay [1] and in assay [2] was below 25% throughout.

With `c1ccc2c(c1)CCc1ccccc1N2`, the inhibition in assay [1] and in assay [2] was below 25% each time.

For the compound `NC(=O)c1ccc2c(c1)CCc1cc(N)ccc1N2`, the inhibition in [1] and in assay [2] was below 25% in each case.

Consider `NC(=O)c1cccc2c1Nc1ccccc1CC2`, for which the inhibition in assay [1] and in [2] was below 25% throughout.

As for `CN1c2ccc(C(N)=O)cc2CCc2cc([N+](=O)[O-])ccc21`, the half-inhibitory concentration (IC50) in assay [12] is 77.5 µM. Moreover, in [13], the inhibition came out at 23%.

As for `N#Cc1ccc2c(c1)CCc1ccccc1N2`, the inhibition in [1] and in assay [2] was below 25% each time.

With `NC(=O)C1CCCc2c1[nH]c1ccc(Cl)cc21` (stereo not drawn), the Activity with MCF7 [3] is 73.8%; with MCF7 [4] it was 1.2%; in the assay on MCF7 [9] it was 50%; with MCF7 [7], 10.3%; in the assay with MCF7 [8] it was 15.7%.

Turning to `CC(C)(C)NC(=O)c1ccc2c(c1)CCc1ccccc1N2`, the inhibition in [1] is below 25%. In assay [12], the concentration for half-maximal inhibition (IC50) was found to be 100 µM.

In the case of `CC(C)(C)NS(=O)(=O)c1ccc2c(c1)Nc1ccccc1CC2`, the IC50 in assay [12] was found to be 29.8 µM. Further, in [13], the inhibition is 12%.

`NC(=O)c1ccc2c(c1)CCc1ccccc1N2`: the inhibition in assay [1] and in assay [2] was below 25% throughout.

`NC(=O)c1ccc2c(c1)CCc1cc([N+](=O)[O-])ccc1N2`: the inhibition entry in assay [14] and in [10] was “Active” throughout. For the same compound, the inhibition in [15] is 11%; in assay [13] it was 1%. In addition, the Activity with MCF7 [3] stood at 42.2%; in the assay on MCF7 [4], 0.9%; with MCF7 [7], 18%; in the assay with MCF7 [8] it was 38.9%. Also, the outcome in the assay on MCF7 [9] was Active. Further, the inhibition entry in assay [5] and in [6] was “inactive” in each case. In addition, the IC50 in assay [12] amounted to 17.6 µM. In addition, the Ratio IC50 in the assay filed under Homo sapiens is above 30.

As to `NC(=O)c1ccc2c(c1)CCc1cc(C(N)=O)ccc1N2`, the inhibition in assay [1] and in assay [2] was below 25% throughout.

For `OCc1ccc2c(c1)CCc1cccc(CO)c1N2`, the inhibition in assay [1] and in assay [2] was below 25% throughout.

Take `N#Cc1ccc2c(c1)CCc1cc([N+](=O)[O-])ccc1N2`: the inhibition in assay [1] and in [2] was below 25% in each case.

As usually defined, the inhibition is the change of the read-out against control, counted positive when it falls. One may read the IC50 as the midpoint of a concentration-inhibition curve.
